# Measurements reported in patent publication US20040116531A1, “Water-free skin care formulations comprising micronized urea and method of manufacturing the same” (priority 2000, published 2004).
# System: human healthy skin
# Details: in vivo
# Experimental: The study was designed as a single center, randomized, double-blind (investigator-masked) study with intraindividual comparison of treatments to evaluate the cutaneous tolerance of repeated applications of the medical skin care formulations applied under occlusion during 21 days and started with 25 healthy volunteers of either sex between 18 and 65 years old meeting specific inclusion/exclusion criteria.
# The volunteers were subjected to an occlusive application of 50 μl of each test formulation on designated test fields on their mid back for 21 consecutive days. The occlusive dressings were removed after 23 hours, and the irritation was evaluated one hour later using a 6-point-score (irritation score):
# A Cumulative Irritancy Index (C.I.I.) was calculated for each test preparation for each subject as follows:
# C.I.I.=Sum of irritation scores in one individual/number of readings An ‘adjusted C.I.I.’ (C.I.I.*) was calculated by subtracting scores caused by sensitization reactions.
# Furthermore, a Mean Cumulative Irritation Index (M.C.I.I.) was calculated for each product by averaging individual C.I.I.s across subjects as follows:
# M.C.I.I.=Sum of irritation scores in all individuals/number of readings An ‘adjusted M.C.I.I.’ (M.C.I.I.*) was calculated by subtracting scores caused by sensitization reactions.
substance,measurement,value
white soft paraffin,mean scores during the course of the study,no remarkable differences or tendencies
